Assay results published in patent publication US11203597B2, “Crystalline spirocyclic compound, a dosage form containing, a method for using in treatment of disease, and a method for recrystallizing” (Altavant Sciences GmbH, priority 2018, dated 2021).
Converted amounts (≈) assume the structure as drawn. One block for each molecule: values may come before it.

Assays:
Format in all cases: physicochemical
[1] = Solubility determination by HPLC
From the text: Because of the small differences in solubilities, HPLC was used to measure the solubilities. The values were conformed to the shake-flask results. […] In alcohol, there was a difference in dissolution rate. This difference was not observed for aqueous solutions.

[2] = Solubility of Compound 1, Form 3 in MTBE/n-heptane mixtures; settings: organic solvent or mixture, thermodynamic from solid
Procedure: Solubility of Compound 1, Form 3
The solubility of Compound 1 was evaluated in mixtures of MTBE/n-heptane mixtures at 10° C. and 45° C. The form of the residual solids was examined by XRPD.

[3] = Thermodynamic stability of polymorphs; settings: particularly at temperatures of less than 95° C., more particularly less than 80° C.
[4] = Shake-flask solubility determination with stepwise addition of solvent
From the text: The method applied was a shake-flask solubility determination with stepwise addition of the solvent until complete dissolution is observed visually.

[5] = Stability of polymorph form by pH measurement when stirred in water
Procedure: Additional tests were performed to understand the differences between form 1 and 3. One of those tests was to check stability of polymorph form by pH measurement at several times when the different forms were stirred in water (Table 11). During the tests, any changes in polymorph form were checked.

[6] = Competitive slurry experiments in n-heptane (XRPD); settings: slurry in 10 volumes of n-heptane
Procedure: Competitive slurry experiments were performed to ascertain if Compound 1 samples of Form 1 and mixtures of Form 1 and Form 3 can be converted to Form 3. Pure Form 1 and Form 3 were also tested. First, 700 mg of Compound 1 were added in different ratios to 10 volumes of n-heptane and stirred for […] (Table 2). After 16 hours and four days, the samples were checked for polymorphic form by XRPD. […]

[7] = Competitive slurry of Form 1 and Form 3 in MTBE/n-heptane mixtures (XRPD)
From the text: Compound 1 was also subjected to competitive slurry experiments between Compound 1, Form 1 and Compound 1, Form 3 in MTBE/n-heptane mixtures as summarized in Table 7 below.

[8] = Solubility of Compound 1 in organic solvents other than MTBE/n-heptane; settings: thermodynamic from solid
Procedure: Solubility and Form Measurement
The solubility of Compound 1 was evaluated in organic solvents other than MTBE/n-heptane mixtures. The form of the residual solids was examined by XRPD.

Structure (SMILES): CCOC(=O)[C@@H]1CC2(CCN(c3cc(O[C@H](c4ccc(Cl)cc4-c4ccccc4)C(F)(F)F)nc(N)n3)CC2)CN1 [ES928-59-2]
pH (2 hours) [5]: 8.26
pH (4 hours) [5]: 7.75
pH (7 hours) [5]: 7.76

Structure (SMILES): CCOC(=O)[C@@H]1CC2(CCN(c3cc(O[C@H](c4ccc(Cl)cc4-c4ccccc4)C(F)(F)F)nc(N)n3)CC2)CN1 [ES928-59-3]
pH (2 hours) [5]: 8.71
pH (4 hours) [5]: 8.65
pH (7 hours) [5]: 8.32

Structure (SMILES): CCOC(=O)[C@@H]1CC2(CCN(c3cc(O[C@H](c4ccc(Cl)cc4-c4ccccc4)C(F)(F)F)nc(N)n3)CC2)CN1 [ES928-60-2]
XRPD 16 hours [6]: Mixture 1
XRPD 4 days [6]: Form 3

Structure (SMILES): CCOC(=O)[C@@H]1CC2(CCN(c3cc(O[C@H](c4ccc(Cl)cc4-c4ccccc4)C(F)(F)F)nc(N)n3)CC2)CN1 [Compound 1, (S)-ethyl 8-(2-amino-6-((R)-1-(5-chloro-[1,1′-biphenyl]-2-yl)-2,2,2-trifluoroethoxy)pyrimidin-4-yl)-2,8-diazaspiro[4.5]decane-3-carboxylate]
XRPD (1~2 hours) ([7]; MTBE/n-heptane 1/1(v/v), 45 °C): Form 3
XRPD (19 hours) ([7]; MTBE/n-heptane 1/1(v/v), 45 °C): Form 3
XRPD (1~2 hours) ([7]; MTBE/n-heptane 1/4(v/v), 10 °C): Form 1 +
XRPD (65 hours) ([7]; MTBE/n-heptane 1/4(v/v), 10 °C): Form 3
XRPD (1~2 hours) ([7]; MTBE/n-heptane 1/4(v/v), 45 °C): Form 1+
XRPD (19 hours) ([7]; MTBE/n-heptane 1/4(v/v), 45 °C): Form 3
XRPD (1~2 hours) ([7]; MTBE/n-heptane 1/5(v/v), 10 °C): Form 1 +
XRPD (65 hours) ([7]; MTBE/n-heptane 1/5(v/v), 10 °C): Form 3
XRPD (1~2 hours) ([7]; MTBE/n-heptane 1/5(v/v), 45 °C): Form +
XRPD (65 hours) ([7]; MTBE/n-heptane 1/5(v/v), 45 °C): Form 3
solubility ([8]; EA/n-heptane 1:1, 10 °C, organic solvent or mixture): 422 mg/mL (≈ 715 mM)
solubility ([8]; EA/n-heptane 1:3, 10 °C, organic solvent or mixture): 115 mg/mL (≈ 195 mM)
solubility ([8]; EtOH/n-heptane 1:1, 10 °C, organic solvent or mixture): 396 mg/mL (≈ 671 mM)
solubility ([8]; EtOH/n-heptane 1:3, 10 °C, organic solvent or mixture): 192 mg/mL (≈ 326 mM)
solubility ([8]; IPA, 10 °C, organic solvent or mixture): 79.6 mg/mL (≈ 135 mM)
solubility ([8]; IPA, 50 °C, organic solvent or mixture): > 518 mg/mL
solubility ([8]; MTBE, 10 °C, organic solvent or mixture): > 211 mg/mL
solubility ([8]; MTBE, 50 °C, organic solvent or mixture): > 615 mg/mL
solubility ([8]; acetone/n-heptane 1:1, 10 °C, organic solvent or mixture): > 589 mg/mL
solubility ([8]; acetone/n-heptane 1:3, 10 °C, organic solvent or mixture): 208 mg/mL (≈ 353 mM)
solubility ([8]; n-butanol, 10 °C, organic solvent or mixture): 268 mg/mL (≈ 455 mM)
solubility ([8]; n-butanol, 50 °C, organic solvent or mixture): > 758 mg/mL
solubility ([8]; n-heptane, 50 °C, organic solvent or mixture): 9.5 mg/mL (≈ 16.1 mM)
solubility ([8]; water, 50 °C): 1.2 mg/mL (≈ 2.03 mM)

Structure (SMILES): CCOC(=O)[C@@H]1CC2(CCN(c3cc(O[C@H](c4ccc(Cl)cc4-c4ccccc4)C(F)(F)F)nc(N)n3)CC2)CN1 [ES928-60-3]
XRPD 16 hours [6]: Form 3
XRPD 4 days [6]: Form 3

Structure (SMILES): CCOC(=O)[C@@H]1CC2(CCN(c3cc(O[C@H](c4ccc(Cl)cc4-c4ccccc4)C(F)(F)F)nc(N)n3)CC2)CN1 [ES928-59-1]
pH (2 hours) [5]: 8.68
pH (4 hours) [5]: 8.22
pH (7 hours) [5]: 8.05

Structure (SMILES): CCOC(=O)[C@@H]1CC2(CCN(c3cc(O[C@H](c4ccc(Cl)cc4-c4ccccc4)C(F)(F)F)nc(N)n3)CC2)CN1 [ES928-60-4]
XRPD 16 hours [6]: Form 3
XRPD 4 days [6]: Form 3

Structure (SMILES): CCOC(=O)[C@@H]1CC2(CCN(c3cc(O[C@H](c4ccc(Cl)cc4-c4ccccc4)C(F)(F)F)nc(N)n3)CC2)CN1 [ES928-60-1]
XRPD 16 hours [6]: Form 1
XRPD 4 days [6]: Form 3

Now from value to molecule, other results behind:

Conc. Actual ([1]; Ethanol Abs.): 58 mg/mL
Structure (SMILES): CCOC(=O)[C@@H]1CC2(CCN(c3cc(O[C@H](c4ccc(Cl)cc4-c4ccccc4)C(F)(F)F)nc(N)n3)CC2)CN1 [EdA-928-63-2]

solubility ([2]; MTBE/n-heptane 1/0, 45 °C): > 500 mg/mL
solubility ([2]; MTBE/n-heptane 1/1, 10 °C): 27.2 mg/mL (≈ 46.1 mM)
solubility ([2]; MTBE/n-heptane 1/1, 45 °C): 89.4 mg/mL (≈ 152 mM)
solubility ([2]; MTBE/n-heptane 1/2, 10 °C): 17.5 mg/mL (≈ 29.7 mM)
solubility ([2]; MTBE/n-heptane 1/4, 10 °C): 6.2 mg/mL (≈ 10.5 mM)
solubility ([2]; MTBE/n-heptane 1/5, 45 °C): 4.2 mg/mL (≈ 7.12 mM)
dissolution of remaining slurry in time ([1]; ethanol): dissolved completely
solubility ([4]; 2-methyl-tetrahydrofuran): 106 to 1060 mg/mL
solubility ([4]; 2-propanol): <10.1 mg/mL
solubility ([4]; I-propanol): 35 to 104 mg/mL
solubility ([4]; N,N-dimethyl-acetamide): 108 to 1080 mg/mL
solubility ([4]; acetic acid): 104 to 1040 mg/mL
solubility ([4]; acetone): 108 to 1080 mg/mL
solubility ([4]; acetonitrile): 99 to 990 mg/mL
solubility ([4]; dimethyl sulfoxide): 109 to 1090 mg/mL
solubility ([4]; ethanol): 33 to 100 mg/mL
solubility ([4]; ethyl acetate): 95 to 950 mg/mL
solubility ([4]; formic acid 99%): 96 to 960 mg/mL
solubility ([4]; isopropyl acetate): 94 to 940 mg/mL
solubility ([4]; methanol): 102 to 1020 mg/mL
solubility ([4]; methyl isobutyl): 100 to 1000 mg/mL
solubility ([4]; methyl tert-butyl ether): 106 to 1060 mg/mL
solubility ([4]; n-heptane): <9.9 mg/mL
solubility ([4]; tetrahydrofuran): 99 to 990 mg/mL
solubility ([4]; toluene): 105 to 1050 mg/mL
solubility ([4]; water): <10.0 mg/mL
Structure (SMILES): CCOC(=O)[C@@H]1CC2(CCN(c3cc(O[C@H](c4ccc(Cl)cc4-c4ccccc4)C(F)(F)F)nc(N)n3)CC2)CN1 [Form 3, (S)-ethyl 8-(2-amino-6-((R)-1-(5-chloro-[1,1′-biphenyl]-2-yl)-2,2,2-trifluoroethoxy)pyrimidin-4-yl)-2,8-diazaspiro[4.5]decane-3-carboxylate]
thermodynamic stability compared to crystalline Form 1 [3]: substantially greater thermodynamic stability

XRPD 16 hours [6]: Form 3
XRPD 4 days [6]: Form 3
Structure (SMILES): CCOC(=O)[C@@H]1CC2(CCN(c3cc(O[C@H](c4ccc(Cl)cc4-c4ccccc4)C(F)(F)F)nc(N)n3)CC2)CN1 [ES928-60-S]

solubility thermodynamic ([1]; buffer pH 1.2, pH 1.2, simulated gastric fluid, thermodynamic from solid, Buffer pH 1.2, read-out: Conc. Actual): 49 mg/mL (≈ 83 mM)
Structure (SMILES): CCOC(=O)[C@@H]1CC2(CCN(c3cc(O[C@H](c4ccc(Cl)cc4-c4ccccc4)C(F)(F)F)nc(N)n3)CC2)CN1 [ES-928-62-1]

XRPD 16 hours [6]: Form 3
XRPD 4 days [6]: Form 3
Structure (SMILES): CCOC(=O)[C@@H]1CC2(CCN(c3cc(O[C@H](c4ccc(Cl)cc4-c4ccccc4)C(F)(F)F)nc(N)n3)CC2)CN1 [ES928-60-6]

XRPD 16 hours [6]: remained as Form 1
XRPD 4 days [6]: slowly converts to Form 3
solubility ([4]; 2-methyl-tetrahydrofuran, organic solvent or mixture, thermodynamic from solid, 2-methyl-tetrahydrofuran, read-out: Solubility): 97 to 970 mg/mL (≈ 164 to 1640 mM)
solubility ([4]; 2-propanol): 98 to 980 mg/mL
solubility ([4]; I-propanol): 101 to 1010 mg/mL
solubility ([4]; N,N-dimethyl-acetamide, organic solvent or mixture, thermodynamic from solid, N,N-dimethyl-acetamide, read-out: Solubility): 96 to 960 mg/mL (≈ 163 to 1630 mM)
solubility ([4]; acetic acid): 32 to 95 mg/mL
solubility ([4]; acetone, organic solvent or mixture, thermodynamic from solid, acetone, read-out: Solubility): 96 to 960 mg/mL (≈ 163 to 1630 mM)
solubility ([4]; acetonitrile, organic solvent or mixture, thermodynamic from solid, acetonitrile, read-out: Solubility): 99 to 990 mg/mL (≈ 168 to 1680 mM)
solubility ([4]; dimethyl sulfoxide, organic solvent or mixture, thermodynamic from solid, dimethyl sulfoxide, read-out: Solubility): 101 to 1010 mg/mL (≈ 171 to 1710 mM)
solubility ([4]; ethanol): 96 to 960 mg/mL
solubility ([4]; ethyl acetate, organic solvent or mixture, thermodynamic from solid, ethyl acetate, read-out: Solubility): 101 to 1010 mg/mL (≈ 171 to 1710 mM)
solubility ([4]; formic acid 99%, organic solvent or mixture, thermodynamic from solid, formic acid 99%, read-out: Solubility): 97 to 970 mg/mL (≈ 164 to 1640 mM)
solubility ([4]; isopropyl acetate, organic solvent or mixture, thermodynamic from solid, isopropyl acetate, read-out: Solubility): 103 to 1030 mg/mL (≈ 175 to 1750 mM)
solubility ([4]; methanol, organic solvent or mixture, thermodynamic from solid, methanol, read-out: Solubility): 99 to 990 mg/mL (≈ 168 to 1680 mM)
solubility ([4]; methyl isobutyl, organic solvent or mixture, thermodynamic from solid, methyl isobutyl, read-out: Solubility): 99 to 990 mg/mL (≈ 168 to 1680 mM)
solubility ([4]; methyl tert-butyl ether, organic solvent or mixture, thermodynamic from solid, methyl tert-butyl ether, read-out: Solubility): 102 to 1020 mg/mL (≈ 173 to 1730 mM)
solubility ([4]; n-heptane, organic solvent or mixture, thermodynamic from solid, n-heptane, read-out: Solubility): < 10.1 mg/mL
solubility ([4]; tetrahydrofuran, organic solvent or mixture, thermodynamic from solid, tetrahydrofuran, read-out: Solubility): 97 to 970 mg/mL (≈ 164 to 1640 mM)
solubility ([4]; toluene, organic solvent or mixture, thermodynamic from solid, toluene, read-out: Solubility): 98 to 980 mg/mL (≈ 166 to 1660 mM)
solubility ([4]; water, thermodynamic from solid, water, read-out: Solubility): < 10 mg/mL
Structure (SMILES): CCOC(=O)[C@@H]1CC2(CCN(c3cc(O[C@H](c4ccc(Cl)cc4-c4ccccc4)C(F)(F)F)nc(N)n3)CC2)CN1 [Form 1, (S)-ethyl 8-(2-amino-6-((R)-1-(5-chloro-[1,1′-biphenyl]-2-yl)-2,2,2-trifluoroethoxy)pyrimidin-4-yl)-2,8-diazaspiro[4.5]decane-3-carboxylate]

Conc. Actual ([1]; Buffer pH 1.2): 46 mg/mL
Structure (SMILES): CCOC(=O)[C@@H]1CC2(CCN(c3cc(O[C@H](c4ccc(Cl)cc4-c4ccccc4)C(F)(F)F)nc(N)n3)CC2)CN1 [ES-928-62-4]

Conc. Actual ([1]; Ethanol Abs.): 129 mg/mL
Structure (SMILES): CCOC(=O)[C@@H]1CC2(CCN(c3cc(O[C@H](c4ccc(Cl)cc4-c4ccccc4)C(F)(F)F)nc(N)n3)CC2)CN1 [EdA-928-63-1]
